# Results published in patent publication US7326803B2, “Ligand inhibitors of the RAR receptors, process for preparing same and therapeutic/cosmetic applications thereof” (Galderma Research & Development, priority 2002, dated 2008).
# Tests used:
# Assay type in all cases: cell-based
# RAR alpha = target: T1, RAR alpha (Homo sapiens, UniProt P10276); assay: Transactivation test (luciferase reporter, HeLa cells), RAR alpha; details: HeLa stable transfectants; for Kd: Schild regression against reference agonist 4-[2-(5,5,8,8-tetramethyl-5,6,7,8-tetrahydro-2-naphthyl)propenyl]benzoic acid, read-out: RAR alpha Kdapp; for IC50: reference ligand at the concentration that gives 80% activation
# T1 sequence (P10276 183-417 limits assumed): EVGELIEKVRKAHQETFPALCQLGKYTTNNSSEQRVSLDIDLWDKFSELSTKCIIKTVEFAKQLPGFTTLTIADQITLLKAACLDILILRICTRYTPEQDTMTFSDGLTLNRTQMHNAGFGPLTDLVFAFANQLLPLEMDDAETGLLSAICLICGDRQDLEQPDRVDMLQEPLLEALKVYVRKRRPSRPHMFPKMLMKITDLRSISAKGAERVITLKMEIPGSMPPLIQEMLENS
# Description: (§1) The activation of receptors with an agonist (activator) in HeLa cells leads to the expression of a reporter gene, luciferase, which, in the presence of a substrate, generates light. The activation of the receptors may thus be measured by quantifying the luminescence produced after incubating the cells in the presence of a reference agonist. The inhibitory products displace the agonist from its site, thus preventing activation of the receptor. The activity is measured by quantifying the reduction in light produced. This measurement makes it possible to determine the inhibitory activity of the compounds according to the invention.
# (§2) Determination of the Kdapp:
# (§3) In this study, a constant is determined which represents the affinity of the molecule for the receptor. Since this value can fluctuate depending on the basal activity and the expression of the receptor, it is referred to as the Kdapparent (KdApp).
# (§4) To determine this constant, “crossed curves” of the test product against a reference agonist, 4-[2-(5,5,8,8-tetramethyl-5,6,7,8-tetrahydro-2-naphthyl)propenyl]benzoic acid, are performed in 96-well plates. The test product is used at 10 concentrations and the reference agonist at 7 concentrations. In each well, the cells are in contact with a concentration of the test product and a concentration of the reference agonist, 4-[2-(5,5,8,8-tetramethyl-5,6,7,8-tetrahydro-2-naphthyl)propenyl]benzoic acid. Measurements are also taken for the total agonist (4-[2-(5,5,8,8-tetramethyl-5,6,7,8-tetrahydro-2-naphthyl)propenyl]benzoic acid) and inverse agonist, 4-{(E)-3-[4-(4-tert-butylphenyl)-5,5,8,8-tetramethyl-5,6,7,8-tetrahydro-2-naphthyl]-3-oxopropenyl}benzoic acid, controls.
# (§5) These crossed curves make it possible to determine the AC50 values (concentration at which 50% activation is observed) for the reference ligand at various concentrations of test product. These AC50 values are used to calculate the Schild regression by plotting a straight line corresponding to the Schild equation (“quantitation in receptor pharmacology” Terry P. Kenakin, Receptors and Channels, 2001, 7, 371-385).
# (§6) In the case of an antagonist, an IC50 value (concentration that inhibits 50% of the activity) is calculated by plotting the curve of the product at the concentration of the reference ligand that gives 80% activation.
# (§7) The HeLa cell lines used are stable transfectants containing the plasmids ERE-βGlob-Luc-SV-Neo (reporter gene) and RAR (α, β, γ) ER-DBD-puro. These cells are inoculated into 96-well plates at a rate of 10 000 cells per well in 100 μl of DMEM medium without phenol red, and supplemented with 10% defatted calf serum. The plates are then incubated at 37° C. and 7% CO2 for 4 hours.
# (§8) The various dilutions of the test products, of the reference ligand (4-[2-(5,5,8,8-tetramethyl-5,6,7,8-tetrahydro-2-naphthyl)propenyl]benzoic acid), of the 100% control (100 nM 4-[2-(5,5,8,8-tetramethyl-5,6,7,8-tetrahydro-2-naphthyl)propenyl]benzoic acid) and of the 0% control (500 nM 4-{(E)-3-[4-(4-tert-butylphenyl)-5,5,8,8-tetramethyl-5,6,7,8-tetrahydro-2-naphthyl]-3-oxopropenyl}benzoic acid) are added at a rate of 5 μl per well. The plates are then incubated for 18 hours at 37° C. and 7% CO2.
# (§9) The culture medium is removed by turning over and 100 μl of a 1:1 PBS/luciferine mixture is added to each well. After 5 minutes, the plates are read using the luminescence detector.
# RAR beta = target: T2, RAR beta (Homo sapiens, UniProt P10826); assay: Transactivation test (luciferase reporter, HeLa cells), RAR beta; details: HeLa stable transfectants; for Kd: Schild regression against reference agonist 4-[2-(5,5,8,8-tetramethyl-5,6,7,8-tetrahydro-2-naphthyl)propenyl]benzoic acid, read-out: RAR beta Kdapp; for IC50: reference ligand at the concentration that gives 80% activation
# T2 sequence (P10826 183-417 limits assumed): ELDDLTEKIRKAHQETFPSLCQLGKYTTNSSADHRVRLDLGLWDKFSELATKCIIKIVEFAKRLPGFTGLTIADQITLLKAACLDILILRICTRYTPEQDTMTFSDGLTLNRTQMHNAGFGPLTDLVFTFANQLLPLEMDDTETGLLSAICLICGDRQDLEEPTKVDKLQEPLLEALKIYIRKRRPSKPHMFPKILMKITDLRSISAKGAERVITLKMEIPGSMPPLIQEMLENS
# Description: as §1, §2, §3, §4, §5, §6, §7, §8, §9
# RAR gamma = target: T3, RAR gamma (Homo sapiens, UniProt P13631); assay: Transactivation test (luciferase reporter, HeLa cells), RAR gamma; details: HeLa stable transfectants; for Kd: Schild regression against reference agonist 4-[2-(5,5,8,8-tetramethyl-5,6,7,8-tetrahydro-2-naphthyl)propenyl]benzoic acid, read-out: RAR gamma Kdapp; for IC50: reference ligand at the concentration that gives 80% activation
# T3 sequence (P13631 185-419 limits assumed): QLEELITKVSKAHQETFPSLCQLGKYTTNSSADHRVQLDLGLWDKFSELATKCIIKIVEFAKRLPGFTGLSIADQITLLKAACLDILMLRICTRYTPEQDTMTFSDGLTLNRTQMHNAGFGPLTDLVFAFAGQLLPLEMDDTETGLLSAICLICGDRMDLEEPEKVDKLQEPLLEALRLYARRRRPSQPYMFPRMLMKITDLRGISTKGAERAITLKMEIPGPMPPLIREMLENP
# Description: as §1, §2, §3, §4, §5, §6, §7, §8, §9
Kd (RAR alpha),IC50 (RAR alpha),Kd (RAR beta),IC50 (RAR beta),Kd (RAR gamma),IC50 (RAR gamma),SMILES
8 nM,14 nM,4 nM,6.5 nM,2 nM,5 nM,"CC1(C)CCC(C)(C)c2c(OCc3cccc(F)c3)cc([Se]C#Cc3ccc(C(=O)O)cc3)cc21 [Ex 1, 4-[4-(3-fluorobenzyloxy)-5,5,8,8-tetramethyl-5,6,7,8-tetrahydro-2-naphthylselanylethynyl]benzoic acid]"
15 nM,26.3 nM,30 nM,48 nM,4 nM,10 nM,"CC(C)(C)c1ccc(COc2cc([Se]C#Cc3ccc(C(=O)O)cc3)cc3c2C(C)(C)CCC3(C)C)cc1 [Ex 3, 4-[4-(4-tert-butylbenzyloxy)-5,5,8,8-tetramethyl-5,6,7,8-tetrahydro-2-naphthylselanylethynyl]benzoic acid]"
2 nM,3.5 nM,4 nM,6.4 nM,1 nM,2.5 nM,"CC1(C)CCC(C)(C)c2c(OCc3ccc(F)c(F)c3)cc([Se]C#Cc3ccc(C(=O)O)cc3)cc21 [Ex 4, 4-[4-(3,4-difluorobenzyloxy)-5,5,8,8-tetramethyl-5,6,7,8-tetrahydro-2-naphthylselanylethynyl]benzoic acid]"
2 nM,3.5 nM,1 nM,1.6 nM,1 nM,2.5 nM,"CC1(C)CCC(C)(C)c2c(OCc3ccc(F)cc3F)cc([Se]C#Cc3ccc(C(=O)O)cc3)cc21 [Ex 5, 4-[4-(2,4-difluorobenzyloxy)-5,5,8,8-tetramethyl-5,6,7,8-tetrahydro-2-naphthylselanylethynyl]benzoic acid]"
30 nM,52.5 nM,15 nM,24 nM,4 nM,10 nM,"Cc1cccc(COc2cc([Se]C#Cc3ccc(C(=O)O)cc3)cc3c2C(C)(C)CCC3(C)C)c1 [Ex 10, 4-[5,5,8,8-tetramethyl-4-(3-methylbenzyloxy)-5,6,7,8-tetrahydro-2-naphthylselanylethynyl]benzoic acid]"

SMILES,Kd (RAR alpha),IC50 (RAR alpha),Kd (RAR beta),IC50 (RAR beta),Kd (RAR gamma),IC50 (RAR gamma)
"CC1(C)CCC(C)(C)c2c(OCc3ccc(F)cc3)cc([Se]C#Cc3ccc(C(=O)O)cc3)cc21 [Ex 11, 4-[5,5,8,8-tetramethyl-4-(4-fluorobenzyloxy)-5,6,7,8-tetrahydro-2-naphthylselanylethynyl]benzoic acid]",8 nM,14 nM,4 nM,6.4 nM,1 nM,2.5 nM
